ChEMBL document CHEMBL3046897, “Synthesis of 3-{4-[4-dimethylamino-6-(4-methyl-2-oxo-2H-chromen-7-yloxy)-[1,3,5]triazin-2-ylamino]-phenyl}-2-phenyl-5-(4-pyridin-2-yl-piperazin-1-ylmethyl)-thiazolidin-4-one and their biological evaluation” (2012)
In brackets after ≈: the same amount, converted by molar mass.

Tests used:
Format in all cases: functional
Klebsiella pneumoniae [1] = assay: Antibacterial activity against Klebsiella pneumoniae after 24 hr by agar streak dilution method
Shigella flexneri [2] = assay: Antibacterial activity against Shigella flexneri after 24 hr by agar streak dilution method
Escherichia coli [3] = assay: Antibacterial activity against Escherichia coli at 100 ug/disk after 24 hr by paper disk diffusion method; conditions: read-out: IZ
Bacillus subtilis [4] = assay: Antibacterial activity against Bacillus subtilis after 24 hr by agar streak dilution method
Klebsiella pneumoniae [5] = assay: Antibacterial activity against Klebsiella pneumoniae at 100 ug/disk after 24 hr by paper disk diffusion method; conditions: read-out: IZ
Pseudomonas aeruginosa [6] = assay: Antibacterial activity against Pseudomonas aeruginosa after 24 hr by agar streak dilution method
Escherichia coli [7] = assay: Antibacterial activity against Escherichia coli after 24 hr by agar streak dilution method
Pseudomonas aeruginosa [8] = assay: Antibacterial activity against Pseudomonas aeruginosa at 100 ug/disk after 24 hr by paper disk diffusion method; conditions: read-out: IZ
Salmonella typhi [9] = assay: Antibacterial activity against Salmonella enterica subsp. enterica serovar Typhi after 24 hr by agar streak dilution method
Proteus vulgaris [10] = assay: Antibacterial activity against Proteus vulgaris at 100 ug/disk after 24 hr by paper disk diffusion method; conditions: read-out: IZ
Aspergillus clavatus [11] = assay: Antifungal activity against Aspergillus clavatus after 48 hr by agar streak dilution method
Aspergillus niger [12] = assay: Antifungal activity against Aspergillus niger at 100 ug/disk after 48 hr by paper disk diffusion method; conditions: read-out: IZ
Candida albicans [13] = assay: Antifungal activity against Candida albicans after 48 hr by agar streak dilution method
Aspergillus fumigatus [14] = assay: Antifungal activity against Aspergillus fumigatus at 100 ug/disc after 48 hr by paper disk diffusion method; conditions: read-out: IZ
Aspergillus clavatus [15] = assay: Antifungal activity against Aspergillus clavatus at 100 ug/disc after 48 hr by paper disk diffusion method; conditions: read-out: IZ
Bacillus subtilis [16] = assay: Antibacterial activity against Bacillus subtilis at 100 ug/disk after 24 hr by paper disk diffusion method; conditions: read-out: IZ
Salmonella typhi [17] = assay: Antibacterial activity against Salmonella enterica subsp. enterica serovar Typhi at 100 ug/disk after 24 hr by paper disk diffusion method; conditions: read-out: IZ
Shigella flexneri [18] = assay: Antibacterial activity against Shigella flexneri at 100 ug/disc after 24 hr by paper disk diffusion method; conditions: read-out: IZ
Aspergillus fumigatus [19] = assay: Antifungal activity against Aspergillus fumigatus after 48 hr by agar streak dilution method
Candida albicans [20] = assay: Antifungal activity against Candida albicans at 100 ug/disk after 48 hr by paper disk diffusion method; conditions: read-out: IZ
Staphylococcus aureus [21] = assay: Antibacterial activity against Staphylococcus aureus after 24 hr by agar streak dilution method
Proteus vulgaris [22] = assay: Antibacterial activity against Proteus vulgaris after 24 hr by agar streak dilution method
Staphylococcus aureus [23] = assay: Antibacterial activity against Staphylococcus aureus at 100 ug/disc after 24 hr by paper disk diffusion method; conditions: read-out: IZ
Aspergillus niger [24] = assay: Antifungal activity against Aspergillus niger after 48 hr by agar streak dilution method

## Cc1ccc(/C=N/c2ccc(Nc3nc(Oc4ccc5c(C)cc(=O)oc5c4)nc(N(C)C)n3)cc2)cc1
Klebsiella pneumoniae [1]
  MIC: 100 µg/mL (≈ 197 µM)
Shigella flexneri [2]
  MIC: 50 µg/mL (≈ 98.7 µM)
Escherichia coli [3]
  zone of inhibition at 100 µg/disc: < 10 mm
Bacillus subtilis [4]
  MIC: 50 µg/mL (≈ 98.7 µM)
Klebsiella pneumoniae [5]
  zone of inhibition at 100 µg/disc: 10 mm
Pseudomonas aeruginosa [6]
  MIC: 50 µg/mL (≈ 98.7 µM)
Escherichia coli [7]
  MIC: 100 µg/mL (≈ 197 µM)
Pseudomonas aeruginosa [8]
  zone of inhibition at 100 µg/disc: 18 mm
Salmonella typhi [9]
  MIC: 50 µg/mL (≈ 98.7 µM)
Proteus vulgaris [10]
  zone of inhibition at 100 µg/disc: 11 mm
Aspergillus clavatus [11]
  MIC: 100 µg/mL (≈ 197 µM)
Aspergillus niger [12]
  zone of inhibition at 100 µg/disc: 17 mm
Candida albicans [13]
  MIC: 50 µg/mL (≈ 98.7 µM)
Aspergillus fumigatus [14]
  zone of inhibition at 100 µg/disc: 15 mm
Aspergillus clavatus [15]
  zone of inhibition at 100 µg/disc: 16 mm
Bacillus subtilis [16]
  zone of inhibition at 100 µg/disc: 17 mm
Salmonella typhi [17]
  zone of inhibition at 100 µg/disc: 17 mm
Shigella flexneri [18]
  zone of inhibition at 100 µg/disc: 18 mm
Aspergillus fumigatus [19]
  MIC: 100 µg/mL (≈ 197 µM)
Candida albicans [20]
  zone of inhibition at 100 µg/disc: 17 mm
Staphylococcus aureus [21]
  MIC: 100 µg/mL (≈ 197 µM)
Proteus vulgaris [22]
  MIC: 100 µg/mL (≈ 197 µM)
Staphylococcus aureus [23]
  zone of inhibition at 100 µg/disc: 16 mm
Aspergillus niger [24]
  MIC: 50 µg/mL (≈ 98.7 µM)

## Cc1cc(=O)oc2cc(Oc3nc(Nc4ccc(/N=C/c5cccc(F)c5)cc4)nc(N(C)C)n3)ccc12
Klebsiella pneumoniae [1]
  MIC: 50 µg/mL (≈ 97.9 µM)
Shigella flexneri [2]
  MIC: 50 µg/mL (≈ 97.9 µM)
Escherichia coli [3]
  zone of inhibition at 100 µg/disc: 20 mm
Bacillus subtilis [4]
  MIC: 50 µg/mL (≈ 97.9 µM)
Klebsiella pneumoniae [5]
  zone of inhibition at 100 µg/disc: 16 mm
Pseudomonas aeruginosa [6]
  MIC: 100 µg/mL (≈ 196 µM)
Escherichia coli [7]
  MIC: 50 µg/mL (≈ 97.9 µM)
Pseudomonas aeruginosa [8]
  zone of inhibition at 100 µg/disc: 17 mm
Salmonella typhi [9]
  MIC: 25 µg/mL (≈ 49 µM)
Proteus vulgaris [10]
  zone of inhibition at 100 µg/disc: 14 mm
Aspergillus clavatus [11]
  MIC: 50 µg/mL (≈ 97.9 µM)
Aspergillus niger [12]
  zone of inhibition at 100 µg/disc: 18 mm
Candida albicans [13]
  MIC: 100 µg/mL (≈ 196 µM)
Aspergillus fumigatus [14]
  zone of inhibition at 100 µg/disc: 14 mm
Aspergillus clavatus [15]
  zone of inhibition at 100 µg/disc: 17 mm
Bacillus subtilis [16]
  zone of inhibition at 100 µg/disc: 16 mm
Salmonella typhi [17]
  zone of inhibition at 100 µg/disc: 18 mm
Shigella flexneri [18]
  zone of inhibition at 100 µg/disc: 19 mm
Aspergillus fumigatus [19]
  MIC: 100 µg/mL (≈ 196 µM)
Candida albicans [20]
  zone of inhibition at 100 µg/disc: 13 mm
Staphylococcus aureus [21]
  MIC: 100 µg/mL (≈ 196 µM)
Proteus vulgaris [22]
  MIC: 100 µg/mL (≈ 196 µM)
Staphylococcus aureus [23]
  zone of inhibition at 100 µg/disc: 13 mm
Aspergillus niger [24]
  MIC: 50 µg/mL (≈ 97.9 µM)

## Cc1cc(=O)oc2cc(Oc3nc(Nc4ccc(N5C(=O)CSC5c5ccc(Cl)c(Cl)c5)cc4)nc(N(C)C)n3)ccc12 (centres undefined)
Klebsiella pneumoniae [1]
  MIC: 100 µg/mL (≈ 157 µM)
Shigella flexneri [2]
  MIC: 50 µg/mL (≈ 78.7 µM)
Escherichia coli [3]
  zone of inhibition at 100 µg/disc: 14 mm
Bacillus subtilis [4]
  MIC: 50 µg/mL (≈ 78.7 µM)
Klebsiella pneumoniae [5]
  zone of inhibition at 100 µg/disc: 15 mm
Pseudomonas aeruginosa [6]
  MIC: 50 µg/mL (≈ 78.7 µM)
Escherichia coli [7]
  MIC: 100 µg/mL (≈ 157 µM)
Pseudomonas aeruginosa [8]
  zone of inhibition at 100 µg/disc: 19 mm
Salmonella typhi [9]
  MIC: 50 µg/mL (≈ 78.7 µM)
Proteus vulgaris [10]
  zone of inhibition at 100 µg/disc: 17 mm
Aspergillus clavatus [11]
  MIC: 50 µg/mL (≈ 78.7 µM)
Aspergillus niger [12]
  zone of inhibition at 100 µg/disc: 12 mm
Candida albicans [13]
  MIC: 100 µg/mL (≈ 157 µM)
Aspergillus fumigatus [14]
  zone of inhibition at 100 µg/disc: 15 mm
Aspergillus clavatus [15]
  zone of inhibition at 100 µg/disc: 18 mm
Bacillus subtilis [16]
  zone of inhibition at 100 µg/disc: 18 mm
Salmonella typhi [17]
  zone of inhibition at 100 µg/disc: 18 mm
Shigella flexneri [18]
  zone of inhibition at 100 µg/disc: 18 mm
Aspergillus fumigatus [19]
  MIC: 100 µg/mL (≈ 157 µM)
Candida albicans [20]
  zone of inhibition at 100 µg/disc: 13 mm
Staphylococcus aureus [21]
  MIC: 100 µg/mL (≈ 157 µM)
Proteus vulgaris [22]
  MIC: 100 µg/mL (≈ 157 µM)
Staphylococcus aureus [23]
  zone of inhibition at 100 µg/disc: 16 mm
Aspergillus niger [24]
  MIC: 100 µg/mL (≈ 157 µM)

## COc1ccc(C2SCC(=O)N2c2ccc(Nc3nc(Oc4ccc5c(C)cc(=O)oc5c4)nc(N(C)C)n3)cc2)cc1OC (centres undefined)
Klebsiella pneumoniae [1]
  MIC: 100 µg/mL (≈ 160 µM)
Shigella flexneri [2]
  MIC: 50 µg/mL (≈ 79.8 µM)
Escherichia coli [3]
  zone of inhibition at 100 µg/disc: 11 mm
Bacillus subtilis [4]
  MIC: 100 µg/mL (≈ 160 µM)
Klebsiella pneumoniae [5]
  zone of inhibition at 100 µg/disc: < 10 mm
Pseudomonas aeruginosa [6]
  MIC: 100 µg/mL (≈ 160 µM)
Escherichia coli [7]
  MIC: 100 µg/mL (≈ 160 µM)
Pseudomonas aeruginosa [8]
  zone of inhibition at 100 µg/disc: 12 mm
Salmonella typhi [9]
  MIC: 100 µg/mL (≈ 160 µM)
Proteus vulgaris [10]
  zone of inhibition at 100 µg/disc: 12 mm
Aspergillus clavatus [11]
  MIC: 100 µg/mL (≈ 160 µM)
Aspergillus niger [12]
  zone of inhibition at 100 µg/disc: 15 mm
Candida albicans [13]
  MIC: 100 µg/mL (≈ 160 µM)
Aspergillus fumigatus [14]
  zone of inhibition at 100 µg/disc: < 10 mm
Aspergillus clavatus [15]
  zone of inhibition at 100 µg/disc: 13 mm
Bacillus subtilis [16]
  zone of inhibition at 100 µg/disc: 14 mm
Salmonella typhi [17]
  zone of inhibition at 100 µg/disc: 14 mm
Shigella flexneri [18]
  zone of inhibition at 100 µg/disc: 17 mm
Aspergillus fumigatus [19]
  MIC: 100 µg/mL (≈ 160 µM)
Candida albicans [20]
  zone of inhibition at 100 µg/disc: < 10 mm
Staphylococcus aureus [21]
  MIC: 50 µg/mL (≈ 79.8 µM)
Proteus vulgaris [22]
  MIC: 100 µg/mL (≈ 160 µM)
Staphylococcus aureus [23]
  zone of inhibition at 100 µg/disc: 17 mm
Aspergillus niger [24]
  MIC: 100 µg/mL (≈ 160 µM)

## CC(=O)N1CCN(c2ccc(OCC3COC(Cn4ccnc4)(c4ccc(Cl)cc4Cl)O3)cc2)CC1 (centres undefined) [KETOCONAZOLE]
Aspergillus clavatus [11]
  MIC: 1 µg/mL (≈ 1.88 µM)
Aspergillus niger [12]
  zone of inhibition at 100 µg/disc: 30 mm
Candida albicans [13]
  MIC: 1 µg/mL (≈ 1.88 µM)
Aspergillus fumigatus [14]
  zone of inhibition at 100 µg/disc: 29 mm
Aspergillus clavatus [15]
  zone of inhibition at 100 µg/disc: 31 mm
Aspergillus fumigatus [19]
  MIC: 1 µg/mL (≈ 1.88 µM)
Candida albicans [20]
  zone of inhibition at 100 µg/disc: 33 mm
Aspergillus niger [24]
  MIC: ≤ 3 µg/mL

## O=C(O)c1cn(C2CC2)c2cc(N3CCNCC3)c(F)cc2c1=O [CIPROFLOXACIN]
Klebsiella pneumoniae [1]
  MIC: 1 µg/mL (≈ 3.02 µM)
Shigella flexneri [2]
  MIC: ≤ 3 µg/mL
Escherichia coli [3]
  zone of inhibition at 100 µg/disc: 32 mm
Bacillus subtilis [4]
  MIC: 1 µg/mL (≈ 3.02 µM)
Klebsiella pneumoniae [5]
  zone of inhibition at 100 µg/disc: 33 mm
Pseudomonas aeruginosa [6]
  MIC: 1 µg/mL (≈ 3.02 µM)
Pseudomonas aeruginosa [8]
  zone of inhibition at 100 µg/disc: 33 mm
Salmonella typhi [9]
  MIC: 1 µg/mL (≈ 3.02 µM)
Proteus vulgaris [10]
  zone of inhibition at 100 µg/disc: 31 mm
Bacillus subtilis [16]
  zone of inhibition at 100 µg/disc: 31 mm
Salmonella typhi [17]
  zone of inhibition at 100 µg/disc: 30 mm
Shigella flexneri [18]
  zone of inhibition at 100 µg/disc: 32 mm
Staphylococcus aureus [21]
  MIC: 1 µg/mL (≈ 3.02 µM)
Proteus vulgaris [22]
  MIC: 1 µg/mL (≈ 3.02 µM)
Staphylococcus aureus [23]
  zone of inhibition at 100 µg/disc: 30 mm
